A short description of data set [1]: pH of triacetin when applied to the skin. The class given is physicochemical. An excerpt: Triacetin also acts to decrease the pH of the application area It is known that fungus like moist areas and thrive in environments with a normal acidity, pH 6.5 to 7.2. Yeasts die in low pH environments, i.e. pH levels in the range of 4.5 or less, and infectious fungi are adversely affected in low pH environments. Triacetin has a pH of 4.0 when applied to the skin, and effectively lowers the pH of the application area. As triacetin breaks down after application, it produces acetic acid, a weak antifungal agent. Triacetin also acts to lower the moisture content in the application area, which aids in creating an adverse environment for fungal growth. In high concentrations, such as in this preparation, triacetin reduces the secretion of moisture during perspiration, due to an astringent effect, or antihyperhydrosis effect. Triacetin also acts to reduce moisture by bonding with the moisture available in the affected area, reducing the opportunity or availability of the moisture to be utilized by the fungal cells. After application, triacetin also coats the application area, saturating the epidermis and limiting moisture available for fungal growth. Finally, triacetin can also be used for nutritional support whether administered orally, topically or intravenously, to restore healthy, normal skin as is seen with the topical administration of this preparation.

Data set [2] concerns superficial fungal infections of the skin. The following applies: used alone; previous clinical studies by others; cited from earlier work.
Data set [3] is described as follows: Topical vitamin A on surgical incision area in post surgical patients. The following applies: 50,000 international units applied topically. It counts as in vivo. An excerpt:
Vitamin A is a fat soluble vitamin that is used in a wide dosage range from 5 to 50,000 I.U. to assist in healing. […] Vitamin A is also important for nutritional support. Vitamin D is also a fat soluble vitamin utilized in nutritional support. Vitamin D is not recommended in doses of over 6000 International Units per day. Topical applications with vitamin A and D have been used for years to enhance healing and repair damaged skin.

The subject of data set [4] is Microsporum gypseum. The following applies: cited from earlier work.
Data set [5] concerns Microsporum canis. The following applies: cited from earlier work.
Data set [6] deals with Microsporum audouini. The following applies: cited from earlier work.
Data set [7] relates to Microsporum japonicum. The following applies: cited from earlier work.
The subject of data set [8] is Trichophyton rubrum. The following applies: cited from earlier work.
Data set [9] relates to Trichophyton mentagrophytes. The following applies: cited from earlier work.
The subject of data set [10] is Trichophyton schoenleinii. As to conditions: cited from earlier work.
Data set [11] concerns Trichophyton tonsurans. The following applies: cited from earlier work.
The test system of data set [12] is Epidermophytom flocossum. The following applies: cited from earlier work.
Data set [13] has as its system Aspergillis niger. The following applies: cited from earlier work.
Data set [14] deals with nails infected by dermatophytes. The following applies: cited from earlier work.

In [1], `CC(=O)OCC(COC(C)=O)OC(C)=O` [Triacetin] returned a pH of 4.0. Moreover, the “effectiveness as an antifungal agent” value in [2] is “only mildly effective”.

As for Vitamin A, in data set [3], the healing time entry was “improved healing time”.

Consider `Cc1cccc(N(C)C(=S)Oc2ccc3ccccc3c2)c1` [tolnaftate], for which the in vitro activity entry in data set [4], in [5], in data set [6], in [7], in data set [8] and in data set [9] was “fungistatic or fungicidal” throughout. The in vitro activity entry in data set [10], in [11] and in [12] was “fungistatic or fungicidal” throughout. Moreover, the “activity against Aspergillis niger” value in [13] is listed as “varies from one strain to another”.

In the case of `CN(C/C=C/C#CC(C)(C)C)Cc1cccc2ccccc12` [terbinafine], the “duration of continuous daily intake needed to show some efficacy” value in data set [14] is recorded as “three months or more”.

The values above are taken from patent US20080200539A1, “Topical antifungal treatment” (priority 2002, published 2008).
